According to the supplement of paper PMC10307832:

Key:
Experiment in all cases: relative viability (nuclei count vs DMSO), 5 days (fraction); higher = more cells survive
BI-D1870 + Trametinib = compound: CC(C)CCN1c2nc(Nc3cc(F)c(O)c(F)c3)ncc2N(C)C(=O)C1C [BI-D1870] + CC(=O)Nc1cccc(-n2c(=O)n(C3CC3)c(=O)c3c(Nc4ccc(I)cc4F)n(C)c(=O)c(C)c32)c1 [Trametinib] (partner 0.02 µM)
Method in brief: (§1)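 One day after seeding in 1536-well plates, lung cancer cell lines were dosed by pin tool. Dosing was either single-drug or a fixed anchor-drug dose plus five library-drug doses (not always all listed) in √10 steps. After 5 days, nuclei were stained in one fix-and-stain step and counted on 4× images, and relative viability is the nuclei count of treated wells over that of vehicle wells, given as the median of duplicate plates.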

BI-D1870 + Luminespib = compound: CC(C)CCN1c2nc(Nc3cc(F)c(O)c(F)c3)ncc2N(C)C(=O)C1C [BI-D1870] + CCNC(=O)c1noc(-c2cc(C(C)C)c(O)cc2O)c1-c1ccc(CN2CCOCC2)cc1 [Luminespib] (partner 0.01 µM)
Method in brief: as §1

Zebularine + Pictilisib = compound: O=c1ncccn1[C@@H]1O[C@H](CO)[C@@H](O)[C@H]1O [Zebularine] + CS(=O)(=O)N1CCN(Cc2cc3nc(-c4cccc5[nH]ncc45)nc(N4CCOCC4)c3s2)CC1 [Pictilisib] (partner 1 µM)
Method in brief: as §1

Zebularine + Olaparib = compound: O=c1ncccn1[C@@H]1O[C@H](CO)[C@@H](O)[C@H]1O [Zebularine] + O=C(c1cc(Cc2n[nH]c(=O)c3ccccc23)ccc1F)N1CCN(C(=O)C2CC2)CC1 [Olaparib] (partner 8 µM)
Method in brief: as §1

Cell Line	relative viability (BI-D1870 + Trametinib; first compound 0.04 µM)	relative viability (BI-D1870 + Trametinib; first compound 0.1265 µM)	relative viability (BI-D1870 + Trametinib; first compound 0.4 µM)	relative viability (BI-D1870 + Trametinib; first compound 1.265 µM)	relative viability (BI-D1870 + Trametinib; first compound 4 µM)	relative viability (BI-D1870 + Luminespib; first compound 0.04 µM)	relative viability (BI-D1870 + Luminespib; first compound 0.1265 µM)	relative viability (BI-D1870 + Luminespib; first compound 0.4 µM)	relative viability (BI-D1870 + Luminespib; first compound 1.265 µM)	relative viability (BI-D1870 + Luminespib; first compound 4 µM)	relative viability (Zebularine + Pictilisib; first compound 1 µM)	relative viability (Zebularine + Pictilisib; first compound 3.162 µM)	relative viability (Zebularine + Pictilisib; first compound 10 µM)	relative viability (Zebularine + Pictilisib; first compound 31.62 µM)	relative viability (Zebularine + Pictilisib; first compound 100 µM)	relative viability (Zebularine + Olaparib; first compound 1 µM)	relative viability (Zebularine + Olaparib; first compound 3.162 µM)	relative viability (Zebularine + Olaparib; first compound 10 µM)	relative viability (Zebularine + Olaparib; first compound 31.62 µM)	relative viability (Zebularine + Olaparib; first compound 100 µM)
NCI-H322M	0.437	0.537	0.524	0.508	0.495	0.956	0.84	0.884	0.88	0.774	0.496	0.504	0.439	0.538	0.465	0.544	0.673	0.597	0.581	0.555
NCI-H358	0.147	0.117	0.136	0.153	0.119	0.441	0.158	0.256	0.313	0.319	0.344	0.28	0.395	0.325	0.212	0.67	0.597	0.343	0.295	0.225
NCI-H441	0.524	0.417	0.463	0.578	0.378	0.474	0.267	0.359	0.394	0.412	0.472	0.438	0.291	0.199	0.188	0.568	0.41	0.32	0.227	0.24
NCI-H460	0.133	0.117	0.126	0.105	0.0577	0.0324	0.0316	0.0261	0.0295	0.0315	0.424	0.316	0.212	0.243	0.166	0.433	0.405	0.22	0.162	0.133
NCI-H520	0.645	0.627	0.683	0.612	0.302	0.207	0.209	0.243	0.22	0.194	0.362	0.308	0.204	0.268	0.152	0.337	0.299	0.319	0.243	0.192
NCI-H596	0.95	0.773	0.846	0.804	0.762	1.16	0.985	1.27	0.786	0.915	0.304	0.373	0.361	0.42	0.362	0.7	0.746	0.713	0.591	0.547
NCI-H647	0.575	0.45	0.533	0.462	0.335	0.158	0.0954	0.206	0.31	0.107	0.596	0.381	0.222	0.182	0.114	0.506	0.291	0.171	0.15	0.165
NCI-H650	0.995	0.82	0.862	0.901	0.904	0.867	0.641	0.732	0.918	0.481	0.886	0.868	0.445	0.374	0.27	0.351	0.332	0.307	0.28	0.177
NCI-H661	0.607	0.499	0.598	0.589	0.472	0.961	0.935	0.988	1.01	0.877	0.413	0.427	0.328	0.354	0.395	0.856	0.708	0.56	0.943	0.688
NCI-H727	0.41	0.406	0.406	0.438	0.429	0.235	0.354	0.302	0.332	0.314	0.385	0.22	0.529	0.373	0.353	0.728	0.886	0.732	0.68	0.775
NCI-H838	0.597	0.444	0.536	0.667	0.523	0.309	0.343	0.236	0.295	0.319	0.463	0.457	0.422	0.51	0.303	0.856	0.798	0.546	0.38	0.266
NCI-H1355	0.455	0.361	0.448	0.418	0.454	0.802	0.675	0.649	0.737	0.573	0.45	0.272	0.371	0.426	0.254	0.625	0.426	0.375	0.28	0.272
NCI-H1395	1.09	0.972	1.01	1.17	0.978	0.623	0.532	0.675	0.504	0.521	0.681	0.568	0.493	0.606	0.42	0.465	0.47	0.558	0.438	0.448
NCI-H1437	0.556	0.475	0.494	0.568	0.398	1.17	1.06	1.11	1.11	0.855	0.559	0.453		0.451	0.287	0.661	0.641	0.511	0.443	0.482
NCI-H1650	0.705	0.551	0.573	0.64	0.552	0.197	0.212	0.193	0.212	0.2	0.72	0.447		0.839	0.488	0.731	0.642	0.634	0.912	0.39
NCI-H1651	0.874	0.881	0.81	0.936	0.828	0.902	0.743	0.764	1.03	0.843	0.71	0.732		0.571	0.418	0.183	0.188	0.187	0.165	0.166

Cell Line	relative viability (BI-D1870 + Trametinib; first compound 0.04 µM)	relative viability (BI-D1870 + Trametinib; first compound 0.1265 µM)	relative viability (BI-D1870 + Trametinib; first compound 0.4 µM)	relative viability (BI-D1870 + Trametinib; first compound 1.265 µM)	relative viability (BI-D1870 + Trametinib; first compound 4 µM)	relative viability (BI-D1870 + Luminespib; first compound 0.04 µM)	relative viability (BI-D1870 + Luminespib; first compound 0.1265 µM)	relative viability (BI-D1870 + Luminespib; first compound 0.4 µM)	relative viability (BI-D1870 + Luminespib; first compound 1.265 µM)	relative viability (BI-D1870 + Luminespib; first compound 4 µM)	relative viability (Zebularine + Pictilisib; first compound 1 µM)	relative viability (Zebularine + Pictilisib; first compound 3.162 µM)	relative viability (Zebularine + Pictilisib; first compound 10 µM)	relative viability (Zebularine + Pictilisib; first compound 31.62 µM)	relative viability (Zebularine + Pictilisib; first compound 100 µM)	relative viability (Zebularine + Olaparib; first compound 1 µM)	relative viability (Zebularine + Olaparib; first compound 3.162 µM)	relative viability (Zebularine + Olaparib; first compound 10 µM)	relative viability (Zebularine + Olaparib; first compound 31.62 µM)	relative viability (Zebularine + Olaparib; first compound 100 µM)
NCI-H1666	0.847	0.798	0.801	0.882	0.878	1.02	0.977	1.01	1.05	0.825	0.472	0.477	0.383	0.506	0.311	0.812	0.803	0.65	0.802	0.75
NCI-H1734	0.752	0.549	0.658	0.706	0.632	0.19	0.175	0.188	0.187	0.222	0.505	0.385	0.341	0.333	0.303	0.581	0.523	0.334	0.303	0.239
NCI-H1755	0.758	0.774	0.74	0.831	0.739	0.577	0.542	0.413	0.771	0.316	0.554	0.433	0.326	0.484	0.36	0.911	0.891	0.729	0.74	0.472
NCI-H1792	0.489	0.349	0.437	0.567	0.372	0.505	0.432	0.393	0.592	0.344	0.288	0.267	0.343	0.184	0.158	0.228	0.131	0.204	0.171	0.182
NCI-H1793	0.486	0.332	0.366	0.631	0.429	0.176	0.16	0.194	0.146	0.167	0.472	0.372	0.205	0.269	0.267	1.02	0.906	0.37	0.333	0.27
NCI-H1915	0.332	0.27	0.27	0.254	0.249	0.957	0.673	0.732	0.873	0.761	1.07	0.887	0.774	1.02	0.907	0.266	0.262	0.243	0.253	0.197
NCI-H1944	0.443	0.362	0.382	0.423	0.393	0.841	0.691	0.669	0.879	0.763	0.375	0.363	0.325	0.41	0.347	0.449	0.474	0.366	0.34	0.246
NCI-H1975	0.373	0.285	0.339	0.365	0.289	0.27	0.101	0.308	0.257	0.208	0.305	0.313	0.291	0.253	0.175	0.84	0.574	0.277	0.257	0.251
NCI-H1993	0.404	0.505	0.621	0.567	0.42	1	0.629	0.972	1	0.834	0.962	0.8		0.89	0.847	1.09	0.885	0.416	0.982	0.693
NCI-H2009	0.299	0.221	0.248	0.289	0.198	1.1	1.01	0.93	0.999	0.59	0.838	0.782	0.614	0.68	0.37	0.624	0.648	0.461	0.438	0.263
NCI-H2023	0.537	0.389	0.578	0.516	0.349	1.03	0.48	0.685	0.795	0.385	0.262	0.272	0.215	0.272	0.201	0.512	0.452	0.392	0.256	0.244
NCI-H2085	0.547	0.411	0.576	0.654	0.524	0.483	0.452	0.503	0.407	0.364	0.435	0.411	0.444	0.461	0.343	0.782	0.709	0.568	0.482	0.399
NCI-H2087	0.2	0.158	0.189	0.246	0.199	0.165	0.18	0.206	0.213	0.186	0.92	0.703	0.583	0.752	0.368	0.607	0.478	0.323	0.34	0.239
NCI-H2126	0.557	0.598	0.564	0.546	0.539	0.899	0.767	0.866	0.915	0.769	0.544	0.434	0.535	0.495	0.43	1.08	0.855	0.778	0.664	0.43
NCI-H2170	1	0.829	0.887	0.939	0.874	0.817	0.723	0.751	0.65	0.67	0.385	0.31	0.348	0.322	0.243	0.707	0.561	0.414	0.364	0.166
NCI-H2228	0.54	0.367	0.362	0.56	0.223	0.142	0.131	0.146	0.157	0.127	0.563	0.416	0.228	0.329	0.251	0.737	0.503		0.283	0.236
